According to ChEMBL document CHEMBL4507269, “Data for DCP probe BAY-386” (2021):

How the values were obtained:
[1] = system: Hepatocyte growth factor receptor (Homo sapiens), P08581 [Y1235D]; details: Compound concentration 1000.0 nM
[2] = system: Epidermal growth factor receptor (Homo sapiens), P00533 [UNDEFINED MUTATION]; details: Compound concentration 1000.0 nM
[3] = system: Receptor-type tyrosine-protein kinase FLT3 (Homo sapiens), P36888 [R834Q]; details: Compound concentration 1000.0 nM
[4] = target: Mitogen-activated protein kinase 10 (Homo sapiens) (UniProt P53779); details: Compound concentration 1000.0 nM
[5] = target: Dual specificity testis-specific protein kinase 1 (Homo sapiens) (UniProt Q15569); details: Compound concentration 1000.0 nM
[6] = target: Phosphatidylinositol 4-phosphate 5-kinase type-1 alpha (Homo sapiens) (UniProt Q99755); details: Compound concentration 1000.0 nM
[7] = target: Tyrosine-protein kinase ZAP-70 (Homo sapiens) (UniProt P43403); details: Compound concentration 1000.0 nM
[8] = target: Cyclin-dependent kinase-like 3 (Homo sapiens) (UniProt Q8IVW4); details: Compound concentration 1000.0 nM
[9] = target: Serine/threonine-protein kinase TAO3 (Homo sapiens) (UniProt Q9H2K8); details: Compound concentration 1000.0 nM
[10] = target: Phosphorylase b kinase regulatory subunit alpha, liver isoform (Homo sapiens) (UniProt P46019); details: Compound concentration 1000.0 nM
[11] = target: Tyrosine-protein kinase Mer (Homo sapiens) (UniProt Q12866); details: Compound concentration 1000.0 nM
[12] = target: Vascular endothelial growth factor receptor 2 (Homo sapiens) (UniProt P35968); details: Compound concentration 1000.0 nM
[13] = target: Phosphatidylinositol 4,5-bisphosphate 3-kinase catalytic subunit alpha isoform (Homo sapiens) (UniProt P42336); details: Compound concentration 1000.0 nM
[14] = target: Ephrin type-B receptor 4 (Homo sapiens) (UniProt P54760); details: Compound concentration 1000.0 nM
[15] = target: Serine/threonine-protein kinase TAO2 (Homo sapiens) (UniProt Q9UL54); details: Compound concentration 1000.0 nM
[16] = system: Proto-oncogene tyrosine-protein kinase receptor Ret (Homo sapiens), P07949 [V804M]; details: Compound concentration 1000.0 nM
[17] = target: Aurora kinase B (Homo sapiens) (UniProt Q96GD4); details: Compound concentration 1000.0 nM
[18] = target: Serine/threonine-protein kinase MARK2 (Homo sapiens) (UniProt Q7KZI7); details: Compound concentration 1000.0 nM
[19] = target: Bone morphogenetic protein receptor type-2 (Homo sapiens) (UniProt Q13873); details: Compound concentration 1000.0 nM
[20] = target: Eukaryotic translation initiation factor 2-alpha kinase 1 (Homo sapiens) (UniProt Q9BQI3); details: Compound concentration 1000.0 nM
[21] = target: Dual specificity protein kinase CLK3 (Homo sapiens) (UniProt P49761); details: Compound concentration 1000.0 nM
[22] = target: Serine/threonine-protein kinase 25 (Homo sapiens) (UniProt O00506); details: Compound concentration 1000.0 nM
[23] = target: Tyrosine-protein kinase Tec (Homo sapiens) (UniProt P42680); details: Compound concentration 1000.0 nM
[24] = target: 5-hydroxytryptamine receptor 2C (Homo sapiens) (UniProt P28335); details: Compound concentration 10.0 uM
[25] = target: Tyrosine-protein kinase Yes (Homo sapiens) (UniProt P07947); details: Compound concentration 1000.0 nM
[26] = system: Tyrosine-protein kinase ABL1 (Homo sapiens), P00519 [F317I]; details: Compound concentration 1000.0 nM
[27] = target: 1-phosphatidylinositol 3-phosphate 5-kinase (Homo sapiens) (UniProt Q9Y2I7); details: Compound concentration 1000.0 nM
[28] = target: Serine/threonine-protein kinase 24 (Homo sapiens) (UniProt Q9Y6E0); details: Compound concentration 1000.0 nM
[29] = target: Mitogen-activated protein kinase 15 (Homo sapiens) (UniProt Q8TD08); details: Compound concentration 1000.0 nM
[30] = target: Mitogen-activated protein kinase 1 (Homo sapiens) (UniProt P28482); details: Compound concentration 1000.0 nM
[31] = target: Atypical kinase COQ8A, mitochondrial (Homo sapiens) (UniProt Q8NI60); details: Compound concentration 1000.0 nM
[32] = system: Receptor-type tyrosine-protein kinase FLT3 (Homo sapiens), P36888 [UNDEFINED MUTATION]; details: Compound concentration 1000.0 nM
[33] = target: Ephrin type-B receptor 2 (Homo sapiens) (UniProt P29323); details: Compound concentration 1000.0 nM
[34] = target: Dual specificity protein kinase CLK4 (Homo sapiens) (UniProt Q9HAZ1); details: Compound concentration 1000.0 nM
[35] = target: Serine/threonine-protein kinase B-raf (Homo sapiens) (UniProt P15056); details: Compound concentration 1000.0 nM
[36] = target: Fibroblast growth factor receptor 1 (Homo sapiens) (UniProt P11362); details: Compound concentration 1000.0 nM
[37] = target: Histamine H3 receptor (Homo sapiens) (UniProt Q9Y5N1); details: Compound concentration 10.0 uM
[38] = target: Citron Rho-interacting kinase (Homo sapiens) (UniProt O14578); details: Compound concentration 1000.0 nM
[39] = target: Serine/threonine-protein kinase WNK4 (Homo sapiens) (UniProt Q96J92); details: Compound concentration 1000.0 nM
[40] = target: Ribosomal protein S6 kinase alpha-5 (Homo sapiens) (UniProt O75582); details: Compound concentration 1000.0 nM
[41] = target: Aurora kinase A (Homo sapiens) (UniProt O14965); details: Compound concentration 1000.0 nM
[42] = target: BMP-2-inducible protein kinase (Homo sapiens) (UniProt Q9NSY1); details: Compound concentration 1000.0 nM
[43] = target: Motilin receptor (Homo sapiens) (UniProt O43193); assay: motilin (h) Eurofins-Cerep Cellular and Nuclear Receptor Functional Assays; details: Compound concentration 10.0 uM
[44] = system: Epidermal growth factor receptor (Homo sapiens), P00533 [L858R]; details: Compound concentration 1000.0 nM
[45] = system: Receptor-type tyrosine-protein kinase FLT3 (Homo sapiens), P36888 [K663Q]; details: Compound concentration 1000.0 nM

Motilin receptor (Homo sapiens), sequence (O43193 whole entry): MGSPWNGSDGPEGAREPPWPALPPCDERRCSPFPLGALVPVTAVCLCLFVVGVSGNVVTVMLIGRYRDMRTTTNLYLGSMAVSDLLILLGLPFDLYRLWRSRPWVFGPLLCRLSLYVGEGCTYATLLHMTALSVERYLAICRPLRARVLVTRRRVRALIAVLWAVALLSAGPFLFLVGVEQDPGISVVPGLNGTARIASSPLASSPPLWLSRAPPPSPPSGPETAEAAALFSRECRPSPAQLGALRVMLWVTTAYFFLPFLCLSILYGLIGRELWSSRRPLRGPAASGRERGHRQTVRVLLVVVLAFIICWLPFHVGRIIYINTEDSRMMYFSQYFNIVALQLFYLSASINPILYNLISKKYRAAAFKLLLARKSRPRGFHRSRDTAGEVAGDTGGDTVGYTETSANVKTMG
BMP-2-inducible protein kinase (Homo sapiens), sequence (Q9NSY1 whole entry, looked up): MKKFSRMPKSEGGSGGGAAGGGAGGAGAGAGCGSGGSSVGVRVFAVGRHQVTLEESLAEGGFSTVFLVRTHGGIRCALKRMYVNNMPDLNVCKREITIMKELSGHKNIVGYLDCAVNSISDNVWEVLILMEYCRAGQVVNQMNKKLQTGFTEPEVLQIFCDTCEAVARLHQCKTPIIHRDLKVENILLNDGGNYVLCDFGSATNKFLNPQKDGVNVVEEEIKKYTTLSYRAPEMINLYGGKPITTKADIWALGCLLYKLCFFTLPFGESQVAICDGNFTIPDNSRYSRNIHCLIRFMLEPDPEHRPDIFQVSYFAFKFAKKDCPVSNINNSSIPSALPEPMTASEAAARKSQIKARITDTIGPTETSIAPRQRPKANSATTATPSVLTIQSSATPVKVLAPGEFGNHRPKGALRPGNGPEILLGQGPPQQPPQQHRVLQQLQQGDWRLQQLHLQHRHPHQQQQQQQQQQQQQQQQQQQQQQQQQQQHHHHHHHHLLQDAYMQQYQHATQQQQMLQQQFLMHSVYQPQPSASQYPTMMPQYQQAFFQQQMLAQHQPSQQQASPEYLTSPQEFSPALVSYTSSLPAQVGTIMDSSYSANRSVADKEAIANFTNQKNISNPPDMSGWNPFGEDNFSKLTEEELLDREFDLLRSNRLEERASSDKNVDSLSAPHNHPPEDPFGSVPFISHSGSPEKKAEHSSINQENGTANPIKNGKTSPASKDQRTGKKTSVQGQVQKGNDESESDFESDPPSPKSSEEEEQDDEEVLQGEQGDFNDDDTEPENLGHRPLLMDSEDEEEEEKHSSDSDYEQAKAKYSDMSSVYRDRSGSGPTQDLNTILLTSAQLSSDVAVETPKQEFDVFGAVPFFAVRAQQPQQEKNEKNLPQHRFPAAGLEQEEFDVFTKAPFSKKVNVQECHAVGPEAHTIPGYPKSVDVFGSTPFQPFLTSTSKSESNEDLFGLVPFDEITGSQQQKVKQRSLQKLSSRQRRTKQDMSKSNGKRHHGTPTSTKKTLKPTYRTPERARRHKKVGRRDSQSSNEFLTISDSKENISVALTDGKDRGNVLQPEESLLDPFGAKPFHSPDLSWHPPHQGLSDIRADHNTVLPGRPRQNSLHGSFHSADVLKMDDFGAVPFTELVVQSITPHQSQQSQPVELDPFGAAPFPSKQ
Serine/threonine-protein kinase B-raf (Homo sapiens), sequence (P15056 whole entry): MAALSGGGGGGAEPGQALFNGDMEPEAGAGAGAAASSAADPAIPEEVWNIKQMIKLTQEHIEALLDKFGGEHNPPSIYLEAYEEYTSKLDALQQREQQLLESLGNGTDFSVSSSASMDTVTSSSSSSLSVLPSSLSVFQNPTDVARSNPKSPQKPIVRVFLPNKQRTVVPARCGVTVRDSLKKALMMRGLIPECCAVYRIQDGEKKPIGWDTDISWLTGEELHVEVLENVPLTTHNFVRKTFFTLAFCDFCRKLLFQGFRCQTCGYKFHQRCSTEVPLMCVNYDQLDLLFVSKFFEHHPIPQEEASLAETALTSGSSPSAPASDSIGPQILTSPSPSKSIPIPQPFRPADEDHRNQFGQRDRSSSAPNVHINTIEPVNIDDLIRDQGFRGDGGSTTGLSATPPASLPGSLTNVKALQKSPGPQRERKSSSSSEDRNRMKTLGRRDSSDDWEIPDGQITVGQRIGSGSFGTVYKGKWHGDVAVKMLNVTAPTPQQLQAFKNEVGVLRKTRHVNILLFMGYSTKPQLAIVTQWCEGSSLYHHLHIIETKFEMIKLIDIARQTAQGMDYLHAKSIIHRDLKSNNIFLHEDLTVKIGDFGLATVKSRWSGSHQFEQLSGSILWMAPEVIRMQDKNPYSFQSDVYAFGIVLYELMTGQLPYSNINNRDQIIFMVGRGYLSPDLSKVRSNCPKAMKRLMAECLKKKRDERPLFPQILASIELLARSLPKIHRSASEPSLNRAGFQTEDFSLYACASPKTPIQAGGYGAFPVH
Dual specificity protein kinase CLK3 (Homo sapiens), sequence (P49761 whole entry, looked up): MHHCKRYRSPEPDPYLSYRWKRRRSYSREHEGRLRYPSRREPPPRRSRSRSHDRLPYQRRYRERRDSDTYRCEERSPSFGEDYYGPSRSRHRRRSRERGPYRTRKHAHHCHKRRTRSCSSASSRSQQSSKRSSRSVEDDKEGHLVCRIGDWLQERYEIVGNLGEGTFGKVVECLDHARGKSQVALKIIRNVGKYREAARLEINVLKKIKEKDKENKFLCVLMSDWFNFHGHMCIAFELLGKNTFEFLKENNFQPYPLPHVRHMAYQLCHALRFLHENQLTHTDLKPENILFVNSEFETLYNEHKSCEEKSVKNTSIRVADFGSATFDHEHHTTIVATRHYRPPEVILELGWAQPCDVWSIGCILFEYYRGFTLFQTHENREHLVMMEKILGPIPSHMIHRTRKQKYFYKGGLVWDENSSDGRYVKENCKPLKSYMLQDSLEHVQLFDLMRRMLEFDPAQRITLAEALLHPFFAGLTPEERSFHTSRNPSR
Phosphatidylinositol 4,5-bisphosphate 3-kinase catalytic subunit alpha isoform (Homo sapiens), sequence (P42336 whole entry, canonical isoform): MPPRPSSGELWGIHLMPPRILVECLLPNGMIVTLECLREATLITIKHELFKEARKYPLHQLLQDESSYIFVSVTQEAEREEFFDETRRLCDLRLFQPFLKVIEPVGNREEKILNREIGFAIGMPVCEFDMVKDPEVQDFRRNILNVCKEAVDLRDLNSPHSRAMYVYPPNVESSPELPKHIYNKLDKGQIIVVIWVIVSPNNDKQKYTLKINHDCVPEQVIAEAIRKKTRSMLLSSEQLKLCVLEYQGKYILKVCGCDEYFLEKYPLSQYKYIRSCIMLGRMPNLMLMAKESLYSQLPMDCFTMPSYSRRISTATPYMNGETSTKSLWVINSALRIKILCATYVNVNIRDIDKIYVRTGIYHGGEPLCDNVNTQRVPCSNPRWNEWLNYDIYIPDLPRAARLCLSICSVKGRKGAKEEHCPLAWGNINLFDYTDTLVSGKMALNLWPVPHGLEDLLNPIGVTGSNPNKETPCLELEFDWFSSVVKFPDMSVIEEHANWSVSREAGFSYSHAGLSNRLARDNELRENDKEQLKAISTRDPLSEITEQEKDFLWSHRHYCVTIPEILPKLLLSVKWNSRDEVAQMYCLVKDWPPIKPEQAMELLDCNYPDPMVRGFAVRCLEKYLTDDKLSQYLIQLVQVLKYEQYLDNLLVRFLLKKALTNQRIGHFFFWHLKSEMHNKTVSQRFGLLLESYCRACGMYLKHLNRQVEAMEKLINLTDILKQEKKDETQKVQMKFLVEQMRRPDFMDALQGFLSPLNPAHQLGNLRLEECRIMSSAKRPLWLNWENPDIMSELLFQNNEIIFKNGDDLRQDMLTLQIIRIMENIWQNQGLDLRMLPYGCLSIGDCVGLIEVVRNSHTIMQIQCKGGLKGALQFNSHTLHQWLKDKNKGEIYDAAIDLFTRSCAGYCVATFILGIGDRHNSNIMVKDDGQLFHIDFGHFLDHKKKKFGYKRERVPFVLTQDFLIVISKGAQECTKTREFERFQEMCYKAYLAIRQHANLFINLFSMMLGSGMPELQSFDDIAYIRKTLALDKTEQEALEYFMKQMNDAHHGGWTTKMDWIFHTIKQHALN
Tyrosine-protein kinase Mer (Homo sapiens), sequence (Q12866 whole entry): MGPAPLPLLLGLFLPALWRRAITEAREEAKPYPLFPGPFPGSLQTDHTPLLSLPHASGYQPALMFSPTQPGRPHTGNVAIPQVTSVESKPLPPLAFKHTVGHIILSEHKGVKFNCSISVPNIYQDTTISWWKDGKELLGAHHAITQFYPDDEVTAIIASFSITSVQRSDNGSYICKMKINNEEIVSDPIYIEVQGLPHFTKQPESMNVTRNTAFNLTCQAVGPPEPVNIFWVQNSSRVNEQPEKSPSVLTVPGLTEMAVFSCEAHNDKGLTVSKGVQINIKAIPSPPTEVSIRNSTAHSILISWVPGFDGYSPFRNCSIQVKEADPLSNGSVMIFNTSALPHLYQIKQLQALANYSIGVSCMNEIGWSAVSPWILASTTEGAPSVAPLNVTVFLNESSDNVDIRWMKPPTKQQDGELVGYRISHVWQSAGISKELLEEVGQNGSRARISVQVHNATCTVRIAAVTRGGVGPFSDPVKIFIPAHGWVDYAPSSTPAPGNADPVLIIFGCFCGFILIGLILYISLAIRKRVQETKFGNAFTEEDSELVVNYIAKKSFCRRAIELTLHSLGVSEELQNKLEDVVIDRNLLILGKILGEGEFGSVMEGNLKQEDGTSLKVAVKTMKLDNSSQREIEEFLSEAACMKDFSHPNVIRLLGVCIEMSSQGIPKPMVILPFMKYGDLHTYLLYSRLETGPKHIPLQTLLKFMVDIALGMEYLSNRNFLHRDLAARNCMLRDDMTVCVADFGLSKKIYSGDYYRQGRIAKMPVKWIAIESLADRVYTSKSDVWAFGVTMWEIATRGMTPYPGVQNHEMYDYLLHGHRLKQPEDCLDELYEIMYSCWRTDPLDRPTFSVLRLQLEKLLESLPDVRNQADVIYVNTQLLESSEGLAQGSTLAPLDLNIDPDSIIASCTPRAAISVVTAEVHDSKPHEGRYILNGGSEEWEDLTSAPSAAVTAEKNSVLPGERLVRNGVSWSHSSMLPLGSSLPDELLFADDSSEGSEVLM

Structure (SMILES): O=C(N1CCS(=O)(=O)CC1)N1C[C@H](c2ccc(OC(F)(F)F)cc2)C[C@H](c2nc(C3CC3)no2)C1 [BAY-386]
- residual activity [1]: 100%
- residual activity [2]: 55%
- residual activity [3]: 100%
- residual activity [4]: 79%
- residual activity [5]: 100%
- residual activity [6]: 100%
- residual activity [7]: 90%
- residual activity [8]: 93%
- residual activity [9]: 100%
- residual activity [10]: 100%
- residual activity [11]: 100%
- residual activity [12]: 88%
- residual activity [13]: 100%
- residual activity [14]: 100%
- residual activity [15]: 100%
- residual activity [16]: 100%
- residual activity [17]: 100%
- residual activity [18]: 100%
- residual activity [19]: 100%
- residual activity [20]: 90%
- residual activity [21]: 100%
- residual activity [22]: 93%
- residual activity [23]: 100%
- inhibition [24]: -4.94%
- residual activity [25]: 96%
- residual activity [26]: 80%
- residual activity [27]: 100%
- residual activity [28]: 97%
- residual activity [29]: 100%
- residual activity [30]: 95%
- residual activity [31]: 100%
- residual activity [32]: 100%
- residual activity [33]: 100%
- residual activity [34]: 100%
- residual activity [35]: 100%
- residual activity [36]: 100%
- inhibition [37]: -6.71%
- residual activity [38]: 100%
- residual activity [39]: 100%
- residual activity [40]: 100%
- residual activity [41]: 100%
- residual activity [42]: 97%
- % Inhibition of Control Agonist Response (Mean n=2) [43]: 29.2%
- % of Control Agonist Response (Mean n=2) [43]: 16.7%
- residual activity [44]: 100%
- residual activity [45]: 100%

Structure (SMILES): Cc1noc([C@H]2C[C@@H](c3ccc(C(F)(F)F)cc3)CN(C(=O)N3CCS(=O)(=O)C3)C2)n1 [BAY-448]
- residual activity [1]: 100%
- residual activity [2]: 84%
- residual activity [3]: 91%
- residual activity [4]: 88%
- residual activity [5]: 91%
- residual activity [6]: 88%
- residual activity [7]: 100%
- residual activity [8]: 81%
- residual activity [9]: 100%
- residual activity [10]: 100%
- residual activity [11]: 100%
- residual activity [12]: 100%
- residual activity [13]: 99%
- residual activity [14]: 100%
- residual activity [15]: 76%
- residual activity [16]: 100%
- residual activity [17]: 100%
- residual activity [18]: 100%
- residual activity [19]: 100%
- residual activity [20]: 100%
- residual activity [21]: 100%
- residual activity [22]: 89%
- residual activity [23]: 100%
- inhibition [24]: 37.1%
- residual activity [25]: 100%
- residual activity [26]: 100%
- residual activity [27]: 100%
- residual activity [28]: 100%
- residual activity [29]: 100%
- residual activity [30]: 100%
- residual activity [31]: 91%
- residual activity [32]: 100%
- residual activity [33]: 100%
- residual activity [34]: 83%
- residual activity [35]: 97%
- residual activity [36]: 100%
- inhibition [37]: 5.78%
- residual activity [38]: 98%
- residual activity [39]: 100%
- residual activity [40]: 100%
- residual activity [41]: 85%
- residual activity [42]: 100%
- % Inhibition of Control Agonist Response (Mean n=2) [43]: 0.9%
- % of Control Agonist Response (Mean n=2) [43]: 6.9%
- residual activity [44]: 100%
- residual activity [45]: 100%
